What was measured:
[1] = target: T1, Peripheral plasma membrane protein CASK (Homo sapiens) (UniProt O14936); experiment: Selectivity interaction (KinomeScan (DiscoverX)) EUB0000595a CASK; conditions: at 10 µM
T1 sequence (whole entry): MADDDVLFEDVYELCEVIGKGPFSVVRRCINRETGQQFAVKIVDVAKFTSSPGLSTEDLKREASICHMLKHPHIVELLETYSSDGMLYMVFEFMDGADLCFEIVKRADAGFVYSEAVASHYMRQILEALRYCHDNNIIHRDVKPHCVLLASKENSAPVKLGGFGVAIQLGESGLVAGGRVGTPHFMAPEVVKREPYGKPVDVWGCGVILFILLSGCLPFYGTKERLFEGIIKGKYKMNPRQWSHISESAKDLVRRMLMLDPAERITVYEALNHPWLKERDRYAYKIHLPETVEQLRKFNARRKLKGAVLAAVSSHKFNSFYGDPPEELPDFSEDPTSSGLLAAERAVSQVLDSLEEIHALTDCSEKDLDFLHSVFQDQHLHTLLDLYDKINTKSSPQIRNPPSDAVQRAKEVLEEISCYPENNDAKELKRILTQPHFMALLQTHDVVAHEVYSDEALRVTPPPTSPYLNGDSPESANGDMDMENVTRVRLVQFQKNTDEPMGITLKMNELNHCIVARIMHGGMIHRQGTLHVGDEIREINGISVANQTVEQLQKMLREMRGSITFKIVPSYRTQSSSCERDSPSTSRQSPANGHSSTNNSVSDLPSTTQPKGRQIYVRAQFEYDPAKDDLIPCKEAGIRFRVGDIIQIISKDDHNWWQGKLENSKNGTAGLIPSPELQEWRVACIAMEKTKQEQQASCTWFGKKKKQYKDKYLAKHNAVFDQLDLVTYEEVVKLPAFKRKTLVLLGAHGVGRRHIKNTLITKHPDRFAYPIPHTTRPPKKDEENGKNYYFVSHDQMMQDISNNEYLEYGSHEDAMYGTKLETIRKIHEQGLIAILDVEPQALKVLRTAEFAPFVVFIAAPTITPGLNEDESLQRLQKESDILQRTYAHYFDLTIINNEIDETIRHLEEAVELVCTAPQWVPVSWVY

[2] = target: T2, Inhibitor of nuclear factor kappa-B kinase subunit epsilon (Homo sapiens) (UniProt Q14164); experiment: Selectivity interaction (KinomeScan (DiscoverX)) EUB0000595a IKBKE; conditions: at 10 µM
T2 sequence (whole entry): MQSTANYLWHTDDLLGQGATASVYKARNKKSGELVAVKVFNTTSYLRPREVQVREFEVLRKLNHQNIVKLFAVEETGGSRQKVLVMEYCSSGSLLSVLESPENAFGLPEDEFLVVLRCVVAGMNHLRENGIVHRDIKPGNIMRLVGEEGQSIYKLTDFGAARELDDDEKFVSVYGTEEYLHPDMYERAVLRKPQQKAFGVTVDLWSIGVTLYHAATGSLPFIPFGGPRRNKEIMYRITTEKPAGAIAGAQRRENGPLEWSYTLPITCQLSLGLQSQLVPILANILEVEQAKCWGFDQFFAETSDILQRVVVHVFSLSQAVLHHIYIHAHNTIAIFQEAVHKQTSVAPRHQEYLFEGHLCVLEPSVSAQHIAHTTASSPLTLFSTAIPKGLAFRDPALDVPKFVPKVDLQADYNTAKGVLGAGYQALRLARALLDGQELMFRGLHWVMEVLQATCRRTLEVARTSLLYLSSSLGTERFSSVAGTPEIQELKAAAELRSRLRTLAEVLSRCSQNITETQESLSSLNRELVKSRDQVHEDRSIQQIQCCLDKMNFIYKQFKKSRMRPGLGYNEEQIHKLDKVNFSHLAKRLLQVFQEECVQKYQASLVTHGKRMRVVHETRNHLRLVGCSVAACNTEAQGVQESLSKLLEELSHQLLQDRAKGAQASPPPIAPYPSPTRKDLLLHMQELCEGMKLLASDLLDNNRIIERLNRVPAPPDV

[3] = target: T3, Serine/threonine-protein kinase Chk1 (Homo sapiens) (UniProt O14757); experiment: Selectivity interaction (SelectScreen profiling (Invitrogen)) EUB0000607a CHEK1; conditions: at 2 µM
T3 sequence (whole entry): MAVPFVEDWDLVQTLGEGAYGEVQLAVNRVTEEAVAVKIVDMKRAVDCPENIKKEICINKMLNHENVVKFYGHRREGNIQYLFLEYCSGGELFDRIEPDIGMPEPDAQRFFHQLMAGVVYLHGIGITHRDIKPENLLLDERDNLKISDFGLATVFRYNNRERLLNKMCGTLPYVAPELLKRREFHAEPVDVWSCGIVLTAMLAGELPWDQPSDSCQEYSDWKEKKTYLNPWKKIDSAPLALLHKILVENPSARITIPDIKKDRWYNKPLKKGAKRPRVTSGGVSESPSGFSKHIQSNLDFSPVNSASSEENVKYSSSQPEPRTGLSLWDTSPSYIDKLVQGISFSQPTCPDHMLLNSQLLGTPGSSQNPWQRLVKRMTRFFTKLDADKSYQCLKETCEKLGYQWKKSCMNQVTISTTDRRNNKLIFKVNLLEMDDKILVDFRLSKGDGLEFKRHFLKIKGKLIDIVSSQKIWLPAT

[4] = target: Casein kinase I isoform delta (Homo sapiens, UniProt P48730); experiment: Selectivity interaction (Kinase panel (DSF assay)) EUB0001558a CSNK1D
Chain of Casein kinase I isoform delta (P48730 whole entry, looked up, canonical isoform): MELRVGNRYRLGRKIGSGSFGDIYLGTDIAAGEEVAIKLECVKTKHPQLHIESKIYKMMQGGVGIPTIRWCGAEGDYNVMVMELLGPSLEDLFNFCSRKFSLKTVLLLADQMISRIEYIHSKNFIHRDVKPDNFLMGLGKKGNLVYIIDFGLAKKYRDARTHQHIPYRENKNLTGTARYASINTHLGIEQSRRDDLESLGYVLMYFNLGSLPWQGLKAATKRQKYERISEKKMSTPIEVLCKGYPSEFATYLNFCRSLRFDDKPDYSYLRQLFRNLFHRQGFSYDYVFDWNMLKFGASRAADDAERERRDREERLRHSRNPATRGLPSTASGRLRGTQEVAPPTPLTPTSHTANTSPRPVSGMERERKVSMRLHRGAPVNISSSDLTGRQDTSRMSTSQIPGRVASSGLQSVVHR

[5] = target: T4, Inhibitor of nuclear factor kappa-B kinase subunit beta (Homo sapiens) (UniProt O14920); experiment: Selectivity interaction (KinomeScan (DiscoverX)) EUB0000092b IKBKB; conditions: at 10 µM
T4 sequence (whole entry): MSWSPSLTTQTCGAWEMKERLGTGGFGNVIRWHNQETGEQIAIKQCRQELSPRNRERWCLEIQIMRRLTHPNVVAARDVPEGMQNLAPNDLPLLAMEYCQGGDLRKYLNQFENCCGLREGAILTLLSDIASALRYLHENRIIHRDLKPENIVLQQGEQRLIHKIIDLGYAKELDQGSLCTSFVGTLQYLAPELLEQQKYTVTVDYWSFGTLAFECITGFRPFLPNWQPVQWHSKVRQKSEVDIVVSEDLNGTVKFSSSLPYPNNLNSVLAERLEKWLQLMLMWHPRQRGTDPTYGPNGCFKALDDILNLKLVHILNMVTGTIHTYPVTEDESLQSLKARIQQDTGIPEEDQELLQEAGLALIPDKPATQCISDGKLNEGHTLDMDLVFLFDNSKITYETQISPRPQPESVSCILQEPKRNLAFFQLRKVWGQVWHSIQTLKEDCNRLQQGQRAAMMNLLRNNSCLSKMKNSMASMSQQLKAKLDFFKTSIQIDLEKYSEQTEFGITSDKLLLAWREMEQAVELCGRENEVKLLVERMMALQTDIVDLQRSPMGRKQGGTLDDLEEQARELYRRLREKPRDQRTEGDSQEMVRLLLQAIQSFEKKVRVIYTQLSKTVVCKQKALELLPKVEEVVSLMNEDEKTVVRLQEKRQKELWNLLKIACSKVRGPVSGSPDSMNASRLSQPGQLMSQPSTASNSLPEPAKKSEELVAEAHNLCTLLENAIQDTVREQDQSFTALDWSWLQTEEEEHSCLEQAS

COCC(=O)NC/C=C/c1ccc2ncnc(Nc3ccc(Oc4ccc(C)nc4)c(C)c3)c2c1 [CP-724714]
% of control [1]: 100%
% of control [2]: 100%

CNC(=O)Nc1ccc(-c2nc(N3CC4CCC(C3)O4)c3cnn(C4CCC5(CC4)OCCO5)c3n2)cc1
% of inhibition [3]: 9%

CC(C)(O)[C@H](F)CN1Cc2cc(NC(=O)c3cnn4cccnc34)c(N3CCOCC3)cc2C1=O
dTM [4]: 1.9 K

CCC(=O)N1CCN(c2ccc(-n3c(=O)ccc4cnc5ccc(-c6cnc7ccccc7c6)cc5c43)cc2C(F)(F)F)CC1
% of control [5]: 61%

Source: ChEMBL document CHEMBL5465560, “Selectivity Literature for EUbOPEN Chemogenomic Library” (2024)
